{"source": "patent US4082736A", "about": "“Novel immunological adjuvant compounds and methods of preparation thereof” (Syntex (U.S.A.) Inc., priority 1976, dated 1978)", "key": {"[1]": {"tested_on": "guinea pig", "experiment": "Delayed hypersensitivity skin test to arsanilic tyrosine after immunisation with antigen mixture plus test compound in FIA", "format": "in vivo", "conditions": "s.c. in FIA emulsion, skin test day 14, read at 24 hours, relative to FIA = 1", "method": "(§1) The antigen mixture used consists of 20 μg. of arsanilic tyrosine and 100 μg. of protein [either bovine serum albumin (BSA) or ovalbumin]. The antigen mixture and the compounds to be tested, at the dose levels per guinea pig shown in the Table below, are dissolved in saline and emulsified with an equal volume of Freund's Incomplete Adjuvant (FIA). Groups of ten guinea pigs are used for each test compound and each guinea pig is injected with 0.1 ml. of the above emulsion, subcutaneously, in the nuchal region. Control groups are given the antigen mixture alone emulsified with FIA.\nAfter 14 days, all animals are skin tested using 25 μg arsanilic tyrosine conjugated to either BSA or ovalbumin (BSA is used in this test when ovalbumin is present in the antigen mixture and vice versa) which is given in 0.1 ml saline intradermally in the flanks of the animals. The potencies of the test compounds in stimulating the delayed hypersensitivity reaction are then computed by multiplying the average area of the skin reaction at 24 hours by a number from 1 to 3 which is a measure of the amount of infiltration observed in each skin reaction. Thus, the procedure is as follows: skin tests with a high degree of infiltration are scored as ++ and assigned the number 3; those with a lesser degree are scored as + and given the number 2, whereas skin reactions with no infiltration are scored as zero and assigned the number 1. These numbers are then totaled for the animals in a group and the average number obtained is then multiplied by the average area of the observed skin reaction. There is thus included in the potencies the amount of infiltration coupled with the average area observed in the skin test."}, "[2]": {"tested_on": "guinea pig", "experiment": "Antibody titre (antibovine serum albumin or antiovalbumin) in sera by passive hemagglutination or Farr radioimmune assay", "format": "in vivo", "conditions": "s.c. in FIA emulsion, sera of day 42, relative to FIA = 1", "method": "as §1\nOn day 42 all animals are bled by cardiac puncture and the sera assayed for antibovine serum albumin or antiovalbumin antibodies by the passive hemagglutination technique or by radioimmune assay using the Farr technique (P. Minden and R. S. Farr in \"Handbook of Experimental Immunology\", edited by D. M. Weir, Chapter 15, Volume 1, Blackwell Scientific Publications, Oxford) using ^125 iodine labeled bovine serum albumin. Average potencies of these assays are presented in Column 2 of the Table below relative to FIA having the value of one."}}, "data": [{"smiles": "CC(=O)N[C@H]1C(O)O[C@H](CO)[C@@H](O)[C@@H]1O[C@H](C)C(=O)N[C@@H](CCCCN)C(=O)N[C@H](CCC(=O)O)C(N)=O", "note": "(stereo partly drawn) [2-(2-acetamido-2-deoxy-D-glucos-3-O-yl)-D-propionyl-L-lysyl-D-isoglutamine]", "values": [{"measurement": "Average Potency, Delayed Hypersensitivity to Arsanilic Tyrosine", "setting": "[1]; dose 20 μg per guinea pig", "value": 0.9}, {"measurement": "Average Potency, Antibody Titre", "setting": "[2]; dose 20 μg per guinea pig", "value": 1.2}]}, {"smiles": "CC(=O)N[C@H]1C(O)O[C@H](CO)[C@@H](O)[C@@H]1O[C@H](C)C(=O)N[C@@H](C)C(=O)N[C@H](CCC(=O)O)C(N)=O", "note": "(stereo partly drawn) [2-(2-acetamido-2-deoxy-D-glucos-3-O-yl)-D-propionyl-L-alanyl-D-isoglutamine, reference compound]", "values": [{"measurement": "Average Potency, Delayed Hypersensitivity to Arsanilic Tyrosine", "setting": "[1]; dose 50 μg per guinea pig", "value": 3.3}, {"measurement": "Average Potency, Antibody Titre", "setting": "[2]; dose 50 μg per guinea pig", "value": 3.7}]}, {"smiles": "CC(=O)N[C@H]1C(O)O[C@H](CO)[C@@H](O)[C@@H]1O[C@H](C)C(=O)N[C@H](C(=O)N[C@H](CCC(=O)O)C(N)=O)C(C)C", "note": "(stereo partly drawn) [2-(2-acetamido-2-deoxy-D-glucos-3-O-yl)-D-propionyl-L-valyl-D-isoglutamine]", "values": [{"measurement": "Average Potency, Delayed Hypersensitivity to Arsanilic Tyrosine", "setting": "[1]; dose 50 μg per guinea pig", "value": 7.1}, {"measurement": "Average Potency, Antibody Titre", "setting": "[2]; dose 50 μg per guinea pig", "value": 4.0}]}, {"smiles": "CC(=O)N[C@H]1C(O)O[C@H](CO)[C@@H](O)[C@@H]1O[C@H](C)C(=O)N[C@@H](CC(C)C)C(=O)N[C@H](CCC(=O)O)C(N)=O", "note": "(stereo partly drawn) [2-(2-acetamido-2-deoxy-D-glucos-3-O-yl)-D-propionyl-L-leucyl-D-isoglutamine]", "values": [{"measurement": "Average Potency, Delayed Hypersensitivity to Arsanilic Tyrosine", "setting": "[1]; dose 50 μg per guinea pig", "value": 7.5}, {"measurement": "Average Potency, Antibody Titre", "setting": "[2]; dose 50 μg per guinea pig", "value": 5.3}]}, {"smiles": "CC(=O)N[C@H]1C(O)O[C@H](CO)[C@@H](O)[C@@H]1O[C@H](C)C(=O)N[C@@H](Cc1ccccc1)C(=O)N[C@H](CCC(=O)O)C(N)=O", "note": "(stereo partly drawn) [2-(2-acetamido-2-deoxy-D-glucos-3-O-yl)-D-propionyl-L-phenylalanyl-D-isoglutamine]", "values": [{"measurement": "Average Potency, Delayed Hypersensitivity to Arsanilic Tyrosine", "setting": "[1]; dose 50 μg per guinea pig", "value": 7.2}, {"measurement": "Average Potency, Antibody Titre", "setting": "[2]; dose 50 μg per guinea pig", "value": 7.1}]}, {"smiles": "CC(=O)N[C@H]1C(O)O[C@H](CO)[C@@H](O)[C@@H]1O[C@H](C)C(=O)N[C@@H](Cc1ccc(O)cc1)C(=O)N[C@H](CCC(=O)O)C(N)=O", "note": "(stereo partly drawn) [2-(2-acetamido-2-deoxy-D-glucos-3-O-yl)-D-propionyl-L-tyrosyl-D-isoglutamine]", "values": [{"measurement": "Average Potency, Delayed Hypersensitivity to Arsanilic Tyrosine", "setting": "[1]; dose 20 μg per guinea pig", "value": 6.5}, {"measurement": "Average Potency, Antibody Titre", "setting": "[2]; dose 20 μg per guinea pig", "value": 2.3}]}, {"smiles": "CC(=O)N[C@H]1C(O)O[C@H](CO)[C@@H](O)[C@@H]1O[C@H](C)C(=O)N1CCC[C@H]1C(=O)N[C@H](CCC(=O)O)C(N)=O", "note": "(stereo partly drawn) [2-(2-acetamido-2-deoxy-D-glucos-3-O-yl)-D-propionyl-L-prolyl-D-isoglutamine]", "values": [{"measurement": "Average Potency, Delayed Hypersensitivity to Arsanilic Tyrosine", "setting": "[1]; dose 50 μg per guinea pig", "value": 6.6}, {"measurement": "Average Potency, Antibody Titre", "setting": "[2]; dose 50 μg per guinea pig", "value": 7.0}]}]}
